Measured values taken from patent publication US20260007684A1, “AMIDE DERIVATIVES FOR INHIBITING NLRP3 AND USES THEREOF” (Ventus Therapeutics U.S., Inc., priority 2023, published 2026).

Tests used:
human NLRP3 [1] = molecular target: T1, human NLRP3 (Homo sapiens (Human), UniProt Q96P20); experiment: Scintillation Proximity (SPA) NLRP3 Assay: displacement of 3H-MCC950; type: binding
human NLRP3 [2] = molecular target: T1, human NLRP3; experiment: Human PBMC NLRP3 Assay (LPS priming, ATP stimulation, cytokine measurement); type: cell-based; details: human PBMC, LPS priming, ATP stimulation; read-out: PBMC IC50
human NLRP3 [3] = molecular target: T1, human NLRP3; experiment: Human Whole Blood (hWB) NLRP3 Assay (LPS/ATP, IL-1β); type: cell-based
[4] = displacement of 3H-MCC950, read-out: SPA IC50
[5] = human whole blood, LPS/ATP, IL-1β, read-out: hWB IC50
[6] = hWB IC50, human whole blood, LPS/ATP, IL-1β

T1 sequence (Q96P20 whole entry): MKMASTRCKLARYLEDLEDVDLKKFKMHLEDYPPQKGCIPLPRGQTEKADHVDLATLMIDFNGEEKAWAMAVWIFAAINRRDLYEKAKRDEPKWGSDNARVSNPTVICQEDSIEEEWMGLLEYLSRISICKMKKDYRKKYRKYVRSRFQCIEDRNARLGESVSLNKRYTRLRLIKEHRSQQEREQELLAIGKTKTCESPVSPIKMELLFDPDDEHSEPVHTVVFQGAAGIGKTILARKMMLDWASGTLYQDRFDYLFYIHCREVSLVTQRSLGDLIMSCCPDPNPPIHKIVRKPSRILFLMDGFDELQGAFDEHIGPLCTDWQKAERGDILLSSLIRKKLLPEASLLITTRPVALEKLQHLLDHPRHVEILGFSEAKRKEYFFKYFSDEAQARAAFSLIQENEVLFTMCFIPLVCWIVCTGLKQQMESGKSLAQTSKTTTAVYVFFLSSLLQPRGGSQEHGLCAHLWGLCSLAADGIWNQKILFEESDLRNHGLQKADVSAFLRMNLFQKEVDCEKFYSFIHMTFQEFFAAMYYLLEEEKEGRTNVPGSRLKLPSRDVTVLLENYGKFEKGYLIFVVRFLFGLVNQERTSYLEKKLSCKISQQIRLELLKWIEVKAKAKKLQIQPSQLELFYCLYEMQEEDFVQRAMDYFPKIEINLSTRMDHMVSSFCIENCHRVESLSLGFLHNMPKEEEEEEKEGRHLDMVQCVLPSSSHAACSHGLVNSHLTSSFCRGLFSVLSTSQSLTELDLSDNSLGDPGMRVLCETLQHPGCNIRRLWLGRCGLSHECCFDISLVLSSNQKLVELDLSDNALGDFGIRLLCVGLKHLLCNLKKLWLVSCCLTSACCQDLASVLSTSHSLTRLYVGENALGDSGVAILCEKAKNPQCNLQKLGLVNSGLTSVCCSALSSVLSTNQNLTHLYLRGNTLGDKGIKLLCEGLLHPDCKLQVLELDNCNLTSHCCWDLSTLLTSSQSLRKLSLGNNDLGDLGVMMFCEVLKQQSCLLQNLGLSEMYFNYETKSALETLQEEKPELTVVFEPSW

IC50 (human NLRP3 [1]; [4]) [µM]	IC50 (human NLRP3 [2]) [µM]	IC50 (human NLRP3 [3]; [5]) [µM]	IC50 (human NLRP3 [1]; read-out: SPA IC50) [µM]	IC50 (human NLRP3 [3]; read-out: hWB IC50) [µM]	Structure (SMILES)	IC50 (human NLRP3 [3]; [6]) [µM]	IC50 (human NLRP3 [1]; SPA IC50, displacement of 3H-MCC950) [µM]
< 1	< 0.01	< 1	–	–	C[C@@H]1CCN(c2nnn[nH]2)C[C@H](NC(=O)C2(c3ccc(Cl)c(F)c3O)CC2)C1 (single isomer, unassigned) [18A*, 1-(4-chloro-3-fluoro-2-hydroxyphenyl)-N-(5-methyl-1-(1H-tetrazol-5-yl)azepan-3-yl)cyclopropane-1-carboxamide]	–	–
–	< 0.01	< 1	–	–	Cc1ccc(C2(C(=O)N[C@@H]3C[C@H](C)CCN(c4nnn[nH]4)C3)CC2)c(O)c1F (single isomer, unassigned) [22A*, 1-(3-fluoro-2-hydroxy-4-methylphenyl)-N-(5-methyl-1-(1H-tetrazol-5-yl)azepan-3-yl)cyclopropane-1-carboxamide]	–	–
< 1	0.01 to 0.1	> 3	–	–	C[C@@H]1CCN(c2nnn[nH]2)C[C@H](NC(=O)C2(c3ccc(OC(F)(F)F)c(F)c3O)CC2)C1 (single isomer, unassigned) [28A*, 1-(3-fluoro-2-hydroxy-4-(trifluoromethoxy)phenyl)-N-(5-methyl-1-(1H-tetrazol-5-yl)azepan-3-yl)cyclopropane-1-carboxamide]	–	–
< 1	< 0.01	2 to 3	–	–	C[C@@H]1CCN(c2nnn[nH]2)C[C@H](NC(=O)C2(c3ccc(C(F)(F)F)c(F)c3O)CC2)C1 (single isomer, unassigned) [31A*, 1-(3-fluoro-2-hydroxy-4-(trifluoromethyl)phenyl)-N-(5-methyl-1-(1H-tetrazol-5-yl)azepan-3-yl)cyclopropane-1-carboxamide]	–	–
< 1	< 0.01	1 to 2	–	–	C[C@@H]1CCN(c2nnn[nH]2)C[C@H](NC(=O)C2(c3ccc(Cl)cc3F)CC2)C1 (single isomer, unassigned) [56A*]	–	–
< 1	0.01 to 0.1	1 to 2	–	–	C[C@@H]1CCN(c2nnn[nH]2)C[C@H](NC(=O)C2(c3ccc(OC(F)(F)F)cc3)CC2)C1 (single isomer, unassigned) [57A*]	–	–
< 1	0.01 to 0.1	< 1	–	–	C[C@@H]1CCN(c2nnn[nH]2)C[C@H](NC(=O)C2(c3ccc(OC(F)F)cc3)CC2)C1 (single isomer, unassigned) [58A*]	–	–
< 1	< 0.01	< 1	–	–	C[C@@H]1CCN(c2nnn[nH]2)C[C@H](NC(=O)C2(c3ccc(Br)cc3)CC2)C1 (single isomer, unassigned) [59A*]	–	–
< 1	0.01 to 0.1	< 1	–	–	C[C@@H]1CCN(c2nnn[nH]2)C[C@H](NC(=O)C2(c3ccc(C(F)(F)F)cc3)CC2)C1 (single isomer, unassigned) [61A*]	–	–
< 1	< 0.01	< 1	–	–	C[C@@H]1CCN(c2nnn[nH]2)C[C@H](NC(=O)C2(c3ccc(OC(F)(F)F)cc3O)CC2)C1 (single isomer, unassigned) [62A*]	–	–
< 1	0.01 to 0.1	1 to 2	–	–	C[C@@H]1CCN(c2nnn[nH]2)C[C@@H](NC(=O)C2(c3ccc(OC(F)(F)F)cc3O)CC2)C1 (single isomer, unassigned) [62B*]	–	–
< 1	< 0.01	< 1	–	–	C[C@@H]1CCN(c2nnn[nH]2)C[C@H](NC(=O)C2(c3ccc(C(F)(F)F)cc3O)CC2)C1 (single isomer, unassigned) [63A*]	–	–
< 1	0.01 to 0.1	–	–	–	C[C@@H]1CCN(c2nnn[nH]2)C[C@H](NC(=O)C2(c3ccc(OC(F)F)c(F)c3)CC2)C1 (single isomer, unassigned) [73A*]	–	–
–	–	–	420	> 50	O=C(N[C@@H]1CCN(c2nnn[nH]2)C1)C1(c2ccc(Cl)cc2)CC1 (single isomer, unassigned) [Comparative Example A*, reference compound]	–	–

More lines, now with the values behind:

Structure (SMILES)	IC50 (human NLRP3 [1]; [4]) [µM]	IC50 (human NLRP3 [2]) [µM]	IC50 (human NLRP3 [3]; [5]) [µM]	IC50 (human NLRP3 [1]; read-out: SPA IC50) [µM]	IC50 (human NLRP3 [3]; read-out: hWB IC50) [µM]	IC50 (human NLRP3 [3]; [6]) [µM]	IC50 (human NLRP3 [1]; SPA IC50, displacement of 3H-MCC950) [µM]
O=C(N[C@@H]1CCCCCN(c2nnn[nH]2)C1)C1(c2ccc(Cl)cc2)CC1 (single isomer, unassigned) [14A*, N-(1-(1H-tetrazol-5-yl)azocan-3-yl)-1-(4-chlorophenyl)cyclopropane-1-carboxamide]	< 1	0.01 to 0.1	1 to 2	–	–	–	–
Cc1c(Cl)ccc(C2(C(=O)N[C@@H]3C[C@H](C)CCN(c4nnn[nH]4)C3)CC2)c1O (single isomer, unassigned) [21A*, 1-(4-chloro-2-hydroxy-3-methylphenyl)-N-(5-methyl-1-(1H-tetrazol-5-yl)azepan-3-yl)cyclopropane-1-carboxamide]	< 1	< 0.01	< 1	–	–	–	–
CC(C)c1ccc(C2(C(=O)N[C@@H]3C[C@H](C)CCN(c4nnn[nH]4)C3)CC2)c(O)c1 (single isomer, unassigned) [27A*, 1-(2-hydroxy-4-isopropylphenyl)-N-(5-methyl-1-(1H-tetrazol-5-yl)azepan-3-yl)cyclopropane-1-carboxamide]	< 1	< 0.01	< 1	–	–	–	–
C[C@@H]1CCN(c2nnn[nH]2)C[C@H](NC(=O)C2(c3cc(F)c(Cl)cc3O)CC2)C1 (single isomer, unassigned) [29A*, 1-(4-chloro-5-fluoro-2-hydroxyphenyl)-N-(5-methyl-1-(1H-tetrazol-5-yl)azepan-3-yl)cyclopropane-1-carboxamide]	< 1	0.01 to 0.1	1 to 2	–	–	–	–
C[C@H]1C[C@@H](NC(=O)C2(c3ccc(OC(F)F)cc3)CC2)[C@H]2CC[C@@H]1N2c1nnn[nH]1 (single isomer, unassigned) [35E*]	1 to 10	–	> 3	–	–	–	–
C[C@@H]1C[C@@H](NC(=O)C2(c3ccc(C4CC4(F)F)cc3)CC2)[C@H]2CC[C@@H]1N2c1nnn[nH]1 (single isomer, unassigned) [37A*]	< 1	–	–	–	–	1 to 2	–
C[C@@H]1CC(NC(=O)C2(c3ccc(OC(F)F)cc3O)CC2)[C@H]2CC[C@@H]1N2c1nnn[nH]1 (single isomer, unassigned) [43A*]	< 1	–	–	–	–	< 1	–
C[C@@H]1CCN(c2nnn[nH]2)C[C@H](NC(=O)C2(c3ccc(Cl)cc3O)CC2)C1 (single isomer, unassigned) [60A*]	< 1	< 0.01	< 1	–	–	–	–
C[C@@H]1CCN(c2nnn[nH]2)C[C@@H](NC(=O)C2(c3ccc(Cl)cc3O)CC2)C1 (single isomer, unassigned) [60B*]	< 1	0.01 to 0.1	< 1	–	–	–	–
C[C@H]1CC[C@H](NC(=O)C2(c3ccc(Cl)cc3O)CC2)CN(c2nnn[nH]2)C1 (single isomer, unassigned) [90B*]	< 1	0.01 to 0.1	–	–	–	–	–
COc1cc(F)c(C2(C(=O)N[C@@H]3C[C@@H](C)[C@@H]4CC[C@H]3N4c3nnn[nH]3)CC2)c(F)c1 (single isomer, unassigned) [102A*]	< 1	–	–	–	–	< 1	–
O=C(N[C@@H]1C[C@@H](C(F)(F)F)[C@@H]2CC[C@H]1N2c1nnn[nH]1)C1(c2ccc(Cl)cc2)CC1 (single isomer, unassigned) [103A*]	–	–	–	–	–	< 1	< 1
C[C@@H]1C[C@@H](NC(=O)C2(c3ccc(OC(F)F)cc3F)CC2)[C@H]2CC[C@@H]1N2c1nnn[nH]1 (stereo in doubt) [Compound 101A, 1-(4-(difluoromethoxy)-2-fluorophenyl)-N-(4-methyl-8-(1H-tetrazol-5-yl)-8-azabicyclo[3.2.1]octan-2-yl)cyclopropane-1-carboxamide]	< 1	–	–	–	–	< 1	–
C[C@@H]1C[C@H](NC(=O)C2(c3ccc(OC(F)F)cc3O)CC2)[C@H]2CC[C@@H]1N2c1nnn[nH]1 [43B*, N-((1R,2S,4R,5S)-4-methy1-8-(1H-tetrazol-5-yl)-8-azabicyclo[3.2.1]octan-2-yl)-1-(4-(difluoromethoxy)-2-hydroxyphenyl)cyclopropane-1-carboxamide]	< 1	–	> 3	–	–	–	–
C[C@H]1C[C@@H]2CC[C@H]([C@H](NC(=O)C3(c4ccc(C(F)(F)F)cc4)CC3)C1)N2c1nnn[nH]1 [104A*, N-((1R,2R,4R,6S)-4-methyl-9-(1H-tetrazol-5-yl)-9-azabicyclo[4.2.1]nonan-2-yl)-1-(4-(trifluoromethyl)phenyl)cyclopropane-1-carboxamide]	< 1	–	–	–	–	2 to 3	–
C[C@@H]1C[C@H]2CC[C@@H]([C@H](NC(=O)C3(c4ccc(C(F)(F)F)cc4)CC3)C1)N2c1nnn[nH]1 [104C*, N-((1S,2R,4S,6R)-4-methyl-9-(1H-tetrazol-5-yl)-9-azabicyclo[4.2.1]nonan-2-yl)-1-(4-(trifluoromethyl)phenyl)cyclopropane-1-carboxamide]	< 1	–	–	–	–	< 1	–
CN(C(=O)C1(c2ccc(Cl)cc2)CC1)c1cccc(-c2nnn[nH]2)c1 [Comparative Example B2, N-(3-(1H-tetrazol-5-yl)phenyl)-1-(4-chlorophenyl)-N-methylcyclopropane-1-carboxamide, reference compound]	–	–	–	200	> 50	–	–
O=C(Nc1cccc(-c2ccccc2)c1)C1(c2ccc(Cl)cc2)CC1 [Comparative Example D, N-([1,1′-biphenyl]-3-yl)-1-(4-chlorophenyl)cyclopropane-1-carboxamide, reference compound]	–	–	–	320	> 50	–	–
C[C@H]1C[C@@H](NC(=O)C2(c3ccc(C(F)F)cc3O)CC2)CN(c2nnn[nH]2)C1 [Compound 48A, 1-(4-(difluoromethyl)-2-hydroxyphenyl)-N-((3R,5S)-5-methyl-1-(1H-tetrazol-5-yl)piperidin-3-yl)cyclopropane-1-carboxamide]	< 1	–	< 1	–	–	–	–
O=C(N[C@@H]1CCCCN(c2nnn[nH]2)C1)C1(c2ccc(Cl)cc2O)CC1 [Compound 52A, (R)-N-(1-(1H-tetrazol-5-yl)azepan-3-yl)-1-(4-chloro-2-hydroxyphenyl)cyclopropane-1-carboxamide]	< 1	–	< 1	0.079	0.26	–	–
